In US6900338B1, “Scavenger compounds” (Yissum Research Development Company of the Hebrew …, priority 1998, dated 2005):

Legend:
[1] = tested on: vascular (aortic) guanylyl cyclase activity; assay: Prevention of nitrate tolerance: aortic cGMP after continuous NTG infusion, with or without the compounds; assay type: in vivo, rat; conditions: for tolerance development to NTG / NO-donors (result in words): co-administration with nitrates
Protocol: (§1) • a) Acute effects: Rats (Spargue-Dawely) weighing 300-400 g were treated with an intravenous (i.v.) bolus dose of 2 mg nitroglycerin (NTG) before and after pre-treatment with the compounds (50 mg/kg) administered intraperitoneally. Compounds 1 and 2 from FIG. 1, compounds 9 and 10 from FIG. 2, compounds 17 and 18 from FIG. 3, compounds 25 a nd 26 from FIG. 4 were dissolved in a mixture of ethanol:propylene glycol:water (1:1:1) and administered in 1 ml intraperitoneally one hour before NTG administration. One minute after the NTG administration, the rats were sacrificed by decapitation and the aorta was removed quickly, immersed in a phosphate buffer solution containing 20 mM EDTA and immediately frozen in liquid nitrogen add stored at −70° until analyzed. Next day, the tissue were analyzed for their cGMP content. After thawing, tissue were weighed and homogenized in EDTA-phosphate buffer, centrifuged and the super collected into another tube. The pellet was washed with 1 ml buffer, vortex-mixed, centrifuged and the supernatant added to the second tube. 2 ml of acetonitrile were added to the tube containing the combined extracts and the tube vortex-mixed, centrifuged and the supernatant collected to another clean tube. The aqueous-acetonitrile solution in this latter tube was evaporated to dryness and the reside dissolved in assay buffer. The cGMP content of the solution was determined using a radioimmunoassay (RIA-Amersham) as previously reported by us.
Similar significant increases were also obtained when pre-treatment was performed with other compounds (see above). • b) Prevention: Rat were administered a continuos infusion of NTG known to induce tolerance with or without concomitant administration of the compounds (the same tested for the acute effects). The compounds were administered either in continuos i.v. infusion or intraperitoneally in 4 separated doses (q 6 hours). The effects on vascular (aortic) guanylyl cyclase activity was then evaluated as described above for control rats.

[2] = tested on: tissue guanylyl cyclase response to nitrates (aortic cGMP); assay: Acute effects: aortic cGMP after NTG bolus, with or without pre-treatment with the compounds; assay type: in vivo, rat
Protocol: as §1, with “The aqueous-acetonitrile solution in this latter tube was evaporated to dryness and the reside dissolved in assay buffer.” left out, “us. […]” for “us.”

Molecule | cGMP ([1]; NTG-pretreatment: continuous NTG infusion known to induce tolerance, no compound, aorta) | cGMP ([2]; NTG alone, i.v. bolus 2 mg, aorta removed one minute after NTG) | tolerance development to NTG / NO-donors (result in words) [1] | tissue guanylyl cyclase response to nitrates (result in words) ([2]; pre-treatment or co-administration with nitrate / NO donor)
O=[N+]([O-])OCC(CO[N+](=O)[O-])O[N+](=O)[O-] [NTG, nitroglycerin] | 64 ± 9 pmol/g tissue | 175 ± 13 pmol/g tissue | – | –
O=C(O)CCCCC1CCSS1 (centres unmarked) [LA, 1,2-dithiolane-3-valeric acid] | – | – | retards tolerance development | enhances its activity
lipoyl lipoate | – | – | prevents/retards tolerance development | –
